Test results reported in paper PMC117120 (BMC Biochemistry, 2002).
Changes are numbered by the printed parent chain. “And” between values parts separate entries of the source, which are not always exact repeats. Equal entries are not always repeated.

How the values were obtained:
[1] = molecular target: T1, Y142A mutant mouse 5-HT3ASR (Mus musculus, UniProt P23979, Y143A); assay: Inhibition of [^3H]granisetron binding, Y142A receptor; details: for relative increase in Ki, mutant vs wildtype: Y142A vs wildtype
T1 sequence (P23979 24-483 isoform P23979-2 Y143A): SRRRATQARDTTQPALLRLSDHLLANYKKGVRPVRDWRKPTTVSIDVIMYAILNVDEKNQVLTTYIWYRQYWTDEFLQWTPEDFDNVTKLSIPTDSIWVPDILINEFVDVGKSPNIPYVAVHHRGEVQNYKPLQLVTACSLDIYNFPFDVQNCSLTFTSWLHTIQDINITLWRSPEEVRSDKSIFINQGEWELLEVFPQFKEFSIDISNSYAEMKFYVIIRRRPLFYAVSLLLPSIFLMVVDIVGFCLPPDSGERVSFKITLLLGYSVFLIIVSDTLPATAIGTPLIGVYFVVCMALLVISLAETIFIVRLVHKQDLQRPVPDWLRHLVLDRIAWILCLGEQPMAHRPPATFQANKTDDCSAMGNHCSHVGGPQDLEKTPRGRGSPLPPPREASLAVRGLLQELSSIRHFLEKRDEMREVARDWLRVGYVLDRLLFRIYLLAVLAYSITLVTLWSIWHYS

[2] = molecular target: T2, Q150A mutant mouse 5-HT3ASR (Mus musculus, UniProt P23979, Q151A); assay: biochemical
T2 sequence (P23979 24-483 isoform P23979-2 Q151A): T1 sequence (P23979 24-483 isoform P23979-2 Y143A) with A120Y, Q128A

[3] = molecular target: T3, K153A mutant mouse 5-HT3ASR (Mus musculus, UniProt P23979, K154A); assay: biochemical
T3 sequence (P23979 24-483 isoform P23979-2 K154A): T1 sequence (P23979 24-483 isoform P23979-2 Y143A) with A120Y, K131A

[4] = molecular target: T4, R146A mutant mouse 5-HT3ASR (Mus musculus, UniProt P23979, R147A); assay: biochemical
T4 sequence (P23979 24-483 isoform P23979-2 R147A): T1 sequence (P23979 24-483 isoform P23979-2 Y143A) with A120Y, R124A

wildtype mouse 5-HT3ASR = molecular target: T5, wildtype mouse 5-HT3ASR (Mus musculus, UniProt P23979); assay: biochemical
T5 sequence (P23979 24-483 isoform P23979-2 limits assumed): T1 sequence (P23979 24-483 isoform P23979-2 Y143A) with A120Y

[5] = molecular target: T6, H145A mutant mouse 5-HT3ASR (Mus musculus, UniProt P23979, H146A); assay: biochemical
T6 sequence (P23979 24-483 isoform P23979-2 H146A): T1 sequence (P23979 24-483 isoform P23979-2 Y143A) with A120Y, H123A

SMILES	Ki [1]	relative increase in Ki, mutant vs wildtype [1]	Ki [2]	Ki [3]	Ki [4]	Ki (wildtype mouse 5-HT3ASR)	Ki [5]
COc1cc2c3cc1Oc1cc(ccc1O)C[C@@H]1c4c(cc(OC)c(O)c4Oc4ccc(cc4)C[C@@H]3N(C)CC2)CC[N+]1(C)C [d-tc, d-tubocurarine]	39 ± 19 nM	6.5 ± 1.5 fold and 6.5 fold	9.3 ± 1.3 nM	17 ± 3 nM	29 ± 4.9 nM	6 ± 2.1 nM	19 ± 2.6 nM
c1ccc(Cn2c(N3CCNCC3)nc3ccccc32)cc1 [lerisetron]	130 ± 28 nM	160 ± 37 fold and 160 fold	1.1 ± 0.21 nM	3 ± 0.66 nM	2.3 ± 0.31 nM	0.8 ± 0.19 nM	0.42 ± 0.04 nM
